# PubChem BioAssay (NCI)
#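 Five compound concentrations were applied to cells in 96-well plates for 48 hours; endpoints were derived by simple linear interpolation of the resulting dose-response curve. TGI denotes the concentration required for complete inhibition of growth.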
# Tests used:
# Assay in all cases: DTP human tumour cell line panel, 48 h
# [1] = tested on: 786-0 renal
# [2] = tested on: A498 renal
# [3] = tested on: A549 NSCLC
# [4] = tested on: ACHN renal
# [5] = tested on: BT-549 breast
# [6] = tested on: CAKI-1 renal
# [7] = tested on: CCRF-CEM leukemia
# [8] = tested on: COLO 205 colon
# [9] = tested on: DU-145 prostate
# [10] = tested on: HCC-2998 colon
# [11] = tested on: HCT-116 colon
# [12] = tested on: HCT-15 colon
# [13] = tested on: HL-60(TB) leukemia
# [14] = tested on: HOP-62 NSCLC
# [15] = tested on: HOP-92 NSCLC
# [16] = tested on: HT29 colon
# [17] = tested on: IGROV1 ovarian
# [18] = tested on: KM12 colon
# [19] = tested on: LOX IMVI melanoma
# [20] = tested on: M14 melanoma
# [21] = tested on: MDA-MB-231 breast
# [22] = tested on: MDA-MB-435
# [23] = tested on: MDA-N
# [24] = tested on: MOLT-4 leukemia
# [25] = tested on: NCI-H226 lung
# [26] = tested on: NCI-H23 lung
# [27] = tested on: NCI-H460 lung
# [28] = tested on: NCI/ADR-RES ovarian
# [29] = tested on: OVCAR-3 ovarian
# [30] = tested on: OVCAR-4 ovarian
# [31] = tested on: OVCAR-5 ovarian
# [32] = tested on: OVCAR-8 ovarian
# [33] = tested on: PC-3 prostate
# [34] = tested on: RPMI-8226 leukemia
# [35] = tested on: RXF 393 renal
# [36] = tested on: SK-MEL-2 melanoma
# [37] = tested on: SK-MEL-28 melanoma
# [38] = tested on: SK-MEL-5 melanoma
# [39] = tested on: SK-OV-3 ovarian
# [40] = tested on: SN12C renal
# [41] = tested on: SNB-19 CNS
# [42] = tested on: SNB-75 CNS
# [43] = tested on: SR leukemia
# [44] = tested on: SW-620 colon
# [45] = tested on: T-47D breast
# [46] = tested on: U251 CNS
# [47] = tested on: UACC-257 melanoma
# [48] = tested on: UACC-62 melanoma
# [49] = tested on: EKVX NSCLC
# [50] = tested on: MCF7 breast
# [51] = tested on: SF-295 CNS
# [52] = tested on: SF-539 CNS
# [53] = tested on: TK-10 renal
# [54] = tested on: UO-31 renal
# [55] = tested on: K-562 leukemia
# [56] = tested on: MALME-3M melanoma
# [57] = tested on: NCI-H522 lung
# [58] = tested on: SF-268 CNS
structure (smiles),measurement,setting,value
C=CCc1cccc2cc(C(N)=O)c(=N)oc12,TGI,[1],> 100 µM
same,TGI,[2],> 100 µM
same,TGI,[3],> 100 µM
same,TGI,[4],> 100 µM
same,TGI,[5],> 100 µM
same,TGI,[6],> 100 µM
same,TGI,[7],> 100 µM
same,TGI,[8],> 100 µM
same,TGI,[9],> 100 µM
same,TGI,[10],> 100 µM
same,TGI,[11],> 100 µM
same,TGI,[12],> 100 µM
same,TGI,[13],> 100 µM
same,TGI,[14],> 100 µM
same,TGI,[15],> 100 µM
same,TGI,[16],> 100 µM
same,TGI,[17],90.3 µM
same,TGI,[18],> 100 µM
same,TGI,[19],> 100 µM
same,TGI,[20],> 100 µM
same,TGI,[21],> 100 µM
same,TGI,[22],> 100 µM
same,TGI,[23],> 100 µM
same,TGI,[24],> 100 µM
same,TGI,[25],> 100 µM
same,TGI,[26],> 100 µM
same,TGI,[27],> 100 µM
same,TGI,[28],> 100 µM
same,TGI,[29],> 100 µM
same,TGI,[30],> 100 µM
same,TGI,[31],> 100 µM
same,TGI,[32],> 100 µM
same,TGI,[33],> 100 µM
same,TGI,[34],> 100 µM
same,TGI,[35],> 100 µM
same,TGI,[36],> 100 µM
same,TGI,[37],> 100 µM
same,TGI,[38],> 100 µM
same,TGI,[39],> 100 µM
same,TGI,[40],> 100 µM
same,TGI,[41],> 100 µM
same,TGI,[42],> 100 µM
same,TGI,[43],> 100 µM
same,TGI,[44],> 100 µM
same,TGI,[45],> 100 µM
same,TGI,[46],> 100 µM
same,TGI,[47],> 100 µM
same,TGI,[48],> 100 µM
CC(=O)C1C(=O)C(=O)N(c2ccc(Cl)c(Cl)c2)C1=O (stereo unspecified),TGI,[1],> 100 µM
same,TGI,[3],> 100 µM
same,TGI,[4],> 100 µM
same,TGI,[5],> 100 µM
same,TGI,[6],> 100 µM
same,TGI,[8],> 100 µM
same,TGI,[9],> 100 µM
same,TGI,[49],> 100 µM
same,TGI,[10],> 100 µM
same,TGI,[11],> 100 µM
same,TGI,[12],> 100 µM
same,TGI,[13],> 100 µM
same,TGI,[14],> 100 µM
same,TGI,[15],> 100 µM
same,TGI,[16],> 100 µM
same,TGI,[17],> 100 µM
same,TGI,[18],> 100 µM
same,TGI,[19],> 100 µM
same,TGI,[20],> 100 µM
same,TGI,[50],> 100 µM
same,TGI,[21],> 100 µM
same,TGI,[22],> 100 µM
same,TGI,[23],> 100 µM
same,TGI,[24],> 100 µM
same,TGI,[25],> 100 µM
same,TGI,[26],> 100 µM
same,TGI,[27],> 100 µM
same,TGI,[28],> 100 µM
same,TGI,[29],> 100 µM
same,TGI,[31],> 100 µM
same,TGI,[32],> 100 µM
same,TGI,[33],> 100 µM
same,TGI,[51],> 100 µM
same,TGI,[52],> 100 µM
same,TGI,[36],> 100 µM
same,TGI,[37],> 100 µM
same,TGI,[38],> 100 µM
same,TGI,[39],> 100 µM
same,TGI,[40],> 100 µM
same,TGI,[41],> 100 µM
same,TGI,[42],> 100 µM
same,TGI,[44],> 100 µM
same,TGI,[45],> 100 µM
same,TGI,[53],> 100 µM
same,TGI,[46],> 100 µM
same,TGI,[47],> 100 µM
same,TGI,[48],> 100 µM
same,TGI,[54],> 100 µM
O=c1c2ccc(Cl)cc2oc2c(CNc3ccc(S(=O)(=O)Nc4nccs4)cc3)cccc12,TGI,[1],> 100 µM
same,TGI,[2],> 100 µM
same,TGI,[3],> 100 µM
same,TGI,[4],> 100 µM
same,TGI,[5],> 100 µM
same,TGI,[6],5.51 µM
same,TGI,[7],> 100 µM
same,TGI,[8],> 100 µM
same,TGI,[9],> 100 µM
same,TGI,[49],> 100 µM
same,TGI,[10],> 100 µM
same,TGI,[11],> 100 µM
same,TGI,[12],> 100 µM
same,TGI,[14],> 100 µM
same,TGI,[15],> 100 µM
same,TGI,[16],> 100 µM
same,TGI,[17],> 100 µM
same,TGI,[55],> 100 µM
same,TGI,[18],> 100 µM
same,TGI,[19],> 100 µM
same,TGI,[20],> 100 µM
same,TGI,[56],> 100 µM
same,TGI,[50],> 100 µM
same,TGI,[21],> 100 µM
same,TGI,[22],> 100 µM
same,TGI,[23],> 100 µM
same,TGI,[24],> 100 µM
same,TGI,[25],> 100 µM
same,TGI,[26],> 100 µM
same,TGI,[57],> 100 µM
same,TGI,[28],> 100 µM
same,TGI,[29],> 100 µM
same,TGI,[30],> 100 µM
same,TGI,[31],> 100 µM
same,TGI,[32],> 100 µM
same,TGI,[33],> 100 µM
same,TGI,[34],> 100 µM
same,TGI,[35],> 100 µM
same,TGI,[58],> 100 µM
same,TGI,[51],> 100 µM
same,TGI,[52],> 100 µM
same,TGI,[36],> 100 µM
same,TGI,[37],> 100 µM
same,TGI,[38],> 100 µM
same,TGI,[39],> 100 µM
same,TGI,[40],> 100 µM
same,TGI,[41],> 100 µM
same,TGI,[43],> 100 µM
same,TGI,[44],> 100 µM
same,TGI,[45],> 100 µM
same,TGI,[53],> 100 µM
same,TGI,[46],> 100 µM
same,TGI,[47],> 100 µM
same,TGI,[48],> 100 µM
same,TGI,[54],> 100 µM
